Test systems include MDA-MB-435; MDA-MB-231 breast; HS 578T breast; PC-3 prostate; DU-145 prostate.
Common to all, as to assay: NCI tumour cell line growth inhibition, 48 h

The source of these data is PubChem BioAssay (NCI).

Each structure is given as a SMILES string.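 Interpolation was linear, between the two tested concentrations surrounding the appropriate level; five concentrations were tested over 48 hours in 96-well plates. Here, GI50 denotes the concentration required for 50% inhibition of growth. At the TGI there is no net growth.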 Where only a bound is given, the exact number is not on record here.

As for `Cc1ccc2nc(-c3ccc(N(C)C)c(Br)c3)cn2c1`, the GI50 is 22.6 µM in the experiment with MDA-MB-435; above 100 µM with MDA-MB-231 breast; 25.3 µM in the experiment with HS 578T breast; 5.69 µM in the experiment with PC-3 prostate; above 100 µM in the experiment with DU-145 prostate. In addition, the TGI in the experiment with MDA-MB-435, in the experiment with MDA-MB-231 breast, in the experiment with HS 578T breast, in the experiment with PC-3 prostate and in the experiment on DU-145 prostate was above 100 µM each time.
For `O=c1cccc(C2CC(CO)C3CCCCN3C2)[nH]1` (configuration not stated), the TGI in the experiment on MDA-MB-435, in the experiment on MDA-MB-231 breast, in the experiment with HS 578T breast, in the experiment with PC-3 prostate and in the experiment with DU-145 prostate was above 100 µM in each case.
As for `Fc1cc2[nH]ncc2c2c3c(c(-c4cn[nH]c4C(F)(F)F)nc12)C1CCC3C1` (configuration not stated), the GI50 in the experiment with MDA-MB-435 is 1.52 µM; in the experiment with MDA-MB-231 breast it was 0.724 µM; with HS 578T breast, 0.808 µM; in the experiment with DU-145 prostate, 1.12 µM. The TGI in the experiment on MDA-MB-435 worked out at 7.14 µM; in the experiment with MDA-MB-231 breast, 3.45 µM; with HS 578T breast, 2.67 µM; with DU-145 prostate, 7.52 µM.
As for `Cc1ccc(-c2csc(NC(=O)CN3CCN(c4cc5c(cc4F)c(=O)c(C(=O)O)cn5C4CC4)CC3)n2)cc1`, the GI50 in the experiment on MDA-MB-435 was 1.77 µM; with MDA-MB-231 breast, 2.08 µM; in the experiment with HS 578T breast, 0.749 µM; with PC-3 prostate, 0.504 µM; with DU-145 prostate it was 0.513 µM. For the same molecule, the TGI in the experiment with MDA-MB-435 is above 100 µM; in the experiment on MDA-MB-231 breast, 13.7 µM; in the experiment on HS 578T breast, 31.7 µM; in the experiment with PC-3 prostate, above 100 µM; in the experiment with DU-145 prostate it was above 100 µM.
Consider `Cc1cc2c(cc1Cl)SC1=NN(C)C(N(C)C)N1S2(=O)=O` (configuration not stated), for which the GI50 in the experiment on MDA-MB-435, in the experiment with MDA-MB-231 breast, with HS 578T breast, in the experiment with PC-3 prostate and in the experiment with DU-145 prostate was above 100 µM in each case. In addition, the TGI in the experiment with MDA-MB-435, in the experiment with MDA-MB-231 breast, in the experiment on HS 578T breast, in the experiment with PC-3 prostate and in the experiment on DU-145 prostate was above 100 µM each time.
With `CCOc1cc(/C=N\Nc2nnc(C)n2N)c(C)cc1N(CCCl)CCCl`, the GI50 in the experiment with MDA-MB-435 was 0.5 µM; in the experiment on MDA-MB-231 breast, 1.39 µM; with HS 578T breast it was 1.52 µM; in the experiment on PC-3 prostate, 0.927 µM; in the experiment with DU-145 prostate, 2.68 µM. For the same molecule, the TGI in the experiment on MDA-MB-435 was above 39.1 µM; in the experiment on MDA-MB-231 breast it was 6.29 µM; with HS 578T breast, 13.1 µM; with PC-3 prostate, 7.41 µM; in the experiment on DU-145 prostate, above 100 µM.
For the molecule `COc1cc(C(=O)Nc2cc3c(cc2Oc2cc(C)cc(C)c2)C(=O)N(C)[C@@H](CC(=O)N(C)O)C(=O)N3)c(Br)c(OC)c1OC`, the GI50 in the experiment with MDA-MB-435, in the experiment on MDA-MB-231 breast, in the experiment with HS 578T breast, in the experiment on PC-3 prostate and with DU-145 prostate was below 0.00333 µM throughout. Further, the TGI was 0.00351 µM in the experiment with MDA-MB-435; below 0.00333 µM in the experiment with MDA-MB-231 breast; 0.00422 µM in the experiment on HS 578T breast; 0.00358 µM in the experiment on PC-3 prostate; 0.00428 µM in the experiment with DU-145 prostate.
For `COc1cc2c(=O)n(CCN)c3c4cc5c(cc4ccc3c2cc1OC)OCO5`, the GI50 was 0.894 µM in the experiment with MDA-MB-435; 1.23 µM in the experiment on MDA-MB-231 breast; 2.8 µM with HS 578T breast; 0.591 µM in the experiment with PC-3 prostate; 0.488 µM with DU-145 prostate. Also, the TGI was 2.29 µM in the experiment with MDA-MB-435; 2.66 µM in the experiment with MDA-MB-231 breast; 11.7 µM in the experiment on HS 578T breast; 2.27 µM in the experiment on PC-3 prostate; 1.83 µM with DU-145 prostate.
On to `Cn1c2c(c3ccc(Cl)c(Cl)c31)C(C#N)C1(CCNCC1)NC2=O` (configuration not stated), for which the GI50 with MDA-MB-435 was 1.4 µM; in the experiment on MDA-MB-231 breast, 1.54 µM; with HS 578T breast, 1.13 µM; with PC-3 prostate it was 1.55 µM; with DU-145 prostate, 1.56 µM. Besides, the TGI was determined as 2.9 µM in the experiment on MDA-MB-435; 3.46 µM with MDA-MB-231 breast; 3.61 µM in the experiment with HS 578T breast; 4.99 µM in the experiment with PC-3 prostate; 3.03 µM in the experiment on DU-145 prostate.
In the case of `CCn1c(-c2nonc2N)nc2c(C#CC(C)(C)O)nc(OCCNC)cc21`, the GI50 is 8.58 µM with MDA-MB-435; 8.9 µM in the experiment on MDA-MB-231 breast; 6.03 µM in the experiment with HS 578T breast; 6.88 µM in the experiment on PC-3 prostate; 8.53 µM in the experiment with DU-145 prostate. In addition, the TGI in the experiment with MDA-MB-435, in the experiment with MDA-MB-231 breast, in the experiment with HS 578T breast, in the experiment with PC-3 prostate and in the experiment on DU-145 prostate was above 25 µM in each case.
Turning to `O=C1c2cc(Cl)ccc2-c2c1c1ccc([N+](=O)[O-])cc1c(=O)n2CCCBr`, the GI50 with MDA-MB-435 is 14.9 µM; with MDA-MB-231 breast it was above 100 µM; with HS 578T breast it was above 100 µM; with PC-3 prostate it was 19.2 µM; with DU-145 prostate, 4 µM. Also, the TGI in the experiment with MDA-MB-435, with MDA-MB-231 breast, with HS 578T breast, with PC-3 prostate and in the experiment with DU-145 prostate was above 100 µM throughout.
With `COc1ccccc1/C=C/C(=O)c1ccccc1`, the GI50 with MDA-MB-435 is 5.16 µM; in the experiment with MDA-MB-231 breast, 14.4 µM; with HS 578T breast, 12.1 µM; in the experiment on PC-3 prostate, 5.65 µM; with DU-145 prostate, 5.23 µM. Further, the TGI in the experiment on MDA-MB-435 is 21.7 µM; in the experiment with MDA-MB-231 breast it was 35.2 µM; with HS 578T breast it was above 25.5 µM; in the experiment with PC-3 prostate, 28 µM; in the experiment on DU-145 prostate it was 16.3 µM.
As to `Cc1sc2nc3c4ccccc4c(NCCCN(C)C)nn3c(=O)c2c1C`, the GI50 is 1.79 µM with MDA-MB-435; 2.15 µM with MDA-MB-231 breast; 3.15 µM with HS 578T breast; 11.5 µM in the experiment with PC-3 prostate; 4.4 µM with DU-145 prostate. Further, the TGI worked out at 3.74 µM with MDA-MB-435; 7.53 µM with MDA-MB-231 breast; 17.5 µM with HS 578T breast; 24.2 µM with PC-3 prostate; 14.5 µM in the experiment on DU-145 prostate.
On to `CC1C(=O)OCC2=CCN3CCC(OC(=O)C(C)C1(C)O)C23` (configuration not stated), for which the TGI in the experiment with MDA-MB-435, in the experiment with MDA-MB-231 breast, in the experiment with HS 578T breast, with PC-3 prostate and in the experiment on DU-145 prostate was above 100 µM each time.
Take `NC(N)=NCCC1OC(=O)C2=C1c1c(O)ccc3nccc(c13)O2` (configuration not stated): the GI50 in the experiment with MDA-MB-435, in the experiment with MDA-MB-231 breast, in the experiment on HS 578T breast, in the experiment on PC-3 prostate and with DU-145 prostate was above 100 µM in each case. Moreover, the TGI in the experiment with MDA-MB-435, in the experiment on MDA-MB-231 breast, in the experiment on HS 578T breast, in the experiment with PC-3 prostate and with DU-145 prostate was above 100 µM in each case.
For the molecule `Cc1cc2c(cc1C)N(C(=O)CCl)CCN2C(=O)CCl`, the GI50 with MDA-MB-435 was 1.02 µM; in the experiment with MDA-MB-231 breast, 1.7 µM; in the experiment on HS 578T breast, 1.75 µM; with PC-3 prostate, 1.43 µM; in the experiment with DU-145 prostate, 1.54 µM. Also, the TGI in the experiment on MDA-MB-435 turned out to be 2.69 µM; in the experiment on MDA-MB-231 breast, 3.92 µM; in the experiment on HS 578T breast it was 4.96 µM; in the experiment with PC-3 prostate, 2.89 µM; in the experiment with DU-145 prostate, 2.9 µM.
Turning to `COc1cc(-c2cn(-c3ccc(Cl)c(Cl)c3)c(=O)n2C(C)=O)cc(OC)c1OC`, the GI50 in the experiment with MDA-MB-435 was 14.2 µM; in the experiment with MDA-MB-231 breast, 10.4 µM; with HS 578T breast it was 6.16 µM; with PC-3 prostate it was 4.3 µM; in the experiment on DU-145 prostate, 5.32 µM. In addition, the TGI with MDA-MB-435 came to 35 µM; with MDA-MB-231 breast it was 26.2 µM; with HS 578T breast, 29.3 µM; in the experiment on PC-3 prostate, 17.8 µM; in the experiment with DU-145 prostate it was 18.2 µM.
As for `O=C(O)C1CCCCC1C(=O)O.[NH-]C1CCC1.[NH2-].[Pt+2]` (configuration not stated), the GI50 was 15.7 µM with MDA-MB-435; 18.8 µM in the experiment with MDA-MB-231 breast; 19.3 µM in the experiment on HS 578T breast; above 100 µM in the experiment on PC-3 prostate; 12.5 µM in the experiment on DU-145 prostate. Further, the TGI in the experiment on MDA-MB-435 is 29.3 µM; in the experiment on MDA-MB-231 breast it was 38.2 µM; in the experiment with HS 578T breast, 57 µM; with PC-3 prostate, above 100 µM; in the experiment with DU-145 prostate it was 25 µM.
Take `Cc1c(C(=O)NCCN2CCOCC2)cn2ncnc(Oc3ccc(NC(=O)Nc4ccc(Cl)c(C(F)(F)F)c4)cc3)c12`: the GI50 was 1.29 µM with MDA-MB-435, 1.31 µM in the experiment with MDA-MB-231 breast, 1.48 µM in the experiment on HS 578T breast and 0.842 µM in the experiment on PC-3 prostate. Besides, the TGI in the experiment with MDA-MB-435 was determined as 2.75 µM; with MDA-MB-231 breast, 2.91 µM; in the experiment on HS 578T breast, 3.99 µM; in the experiment with PC-3 prostate, 2.33 µM.
On to `Cc1cc(S(=O)(=O)NC#N)c(S/C(=N\Nc2ccc([N+](=O)[O-])cc2)c2ccc(Cl)cc2)cc1Cl`, for which the GI50 in the experiment with MDA-MB-435 was 64.3 µM; with HS 578T breast it was 17.2 µM; in the experiment with PC-3 prostate it was 33.6 µM; with DU-145 prostate, 17.6 µM. For the same molecule, the TGI with MDA-MB-435 is above 100 µM; in the experiment on HS 578T breast, 58 µM; in the experiment with PC-3 prostate, above 100 µM; with DU-145 prostate, above 100 µM.
With `Nc1ccccc1C#C/C=C\C#Cc1ccccc1`, the GI50 with MDA-MB-435 was 2.64 µM; in the experiment on MDA-MB-231 breast, 11.6 µM; with PC-3 prostate, 12.3 µM; in the experiment with DU-145 prostate, 12.2 µM. Further, the TGI was found to be 6.31 µM in the experiment with MDA-MB-435, 26.8 µM with MDA-MB-231 breast, 54.1 µM with PC-3 prostate and 38.3 µM in the experiment on DU-145 prostate.
